Results published in patent US12404289B2 (Gilead Sciences, Inc., priority 2020, dated 2025).
Read-outs that look alike come from different tables or passages of the source.

How the values were obtained:
Format in all cases: cell-based
[1] = CC50 assay (cytopathology in HEp-2 cells); details: human, HEp-2 cells, 4 days, CellTiter-Glo; Table 1; read-out: RSV CC50
Description: (§1) The cytopathology of compounds in HEp-2 cells is determined in the following manner. HEp-2 cells are suspended in DMEM+GlutaMAX (supplemented with 10% FBS and 1% Penicillin/Streptomycin) and seeded into 96 well plates (3×10^3/well). After a 4-hour incubation at 37° C.+5% CO2, three-fold serial dilutions of compounds are added to each well using an HP D300e digital dispenser. The cells are then incubated for 4 days at 37° C. and 5% CO2. The final volume in each well is 200 μL. Untreated wells are included as controls for 100% cell viability, while compounds treated with 5 uM puromycin are included as controls for 0% viability. Following the incubation, 100 μL of culture supernatant is removed from each well and replaced with 100 μL of CellTiter-Glo reagent (Promega, Madison, WI, Cat #G7573). The plates are then rocked for 2 minutes followed by a 10-minute incubation at 25° C. Compound-induced cytopathic effect is then assessed by measuring luminescence signal using and Envision plate reader. Values are normalized to the untreated DMSO and puromycin-treated controls (as 100% and 0% viability, respectively) and data is fit using non-linear regression analysis using XLfit4. The CC50 value for each compound is then determined as the concentration reducing cell viability by 50%.

[2] = system: Recombinant respiratory syncytial virus expressing the firefly luciferase protein (RSV-Fluc); test: microbe, parasite or virus in culture; details: Table 4
SARS-CoV-2 = SARS-CoV-2 antiviral assay (A549-hACE2, Nano luciferase); details: A549-hACE2 cells, SARS-CoV2-Nano, MOI 0.025, 48 h
[3] = system: Respiratory syncytial virus (RSV) strain A2; test: Hep-2 RSV2 384-well assay (EC50-HEP2-384); details: HEp-2 cells, RSV A2, MOI=4, 4 days, Table 1
[4] = system: Respiratory syncytial virus (RSV) strain A2; test: RSV antiviral assay (HEp-2, 96 well); details: Table 1
[5] = system: Respiratory syncytial virus recombinant with luciferase (RSV-Luc5); test: microbe, parasite or virus in culture; details: human respiratory syncytial virus, HEp-2, 72 h, read-out: EC50 RSVFluc-Hep2 384, HEp-2 cells, RSV-Luc5, MOI=0.5, 3 days, 384 well, One-Glo; Table 1
HEp-2 cells = test: CC50 assay (cytopathology in HEp-2 cells); details: HEp-2 cells, 4 days, CellTiter-Glo; Table 1; read-out: RSV CC50
Description: as §1

[6] = read-out: EC50 RSVFluc NHBE 96, NHBE cells, RSV-Fluc, MOI of 0.1, three days, 96 well
[7] = Severe acute respiratory syndrome coronavirus 2, 48 h, Table 4, read-out: EC50 SARS CoV2
[8] = human respiratory syncytial virus, HEp-2, 96 h
[9] = human respiratory syncytial virus, HEp-2, 96 h, read-out: EC50-RSV-HEP-2-96, HEp-2 cells, RSV A2, MOI=4, 4 days, 96 well, CellTiter-Glo
[10] = Severe acute respiratory syndrome coronavirus 2, 48 h, Table 1, read-out: SARS-CoV-2 EC50
[11] = human respiratory syncytial virus, NHBE, 72 h, read-out: EC50 RSVFluc NHBE 96, NHBE cells, RSV-Fluc, MOI of 0.1, three days, 96 well

| SMILES | CC50 at 4 days [1] | EC50 [2, 6] | EC50 (SARS-CoV-2; [7]) | EC50 [3, 8] | EC50 [4, 9] | EC50 [5] | EC50 (SARS-CoV-2; [10]) | EC50 [3] | EC50 [2, 11] | CC50 (HEp-2 cells) | EC50 ([4]; read-out: EC50-RSV-HEP-2-96, HEp-2 cells, RSV A2, MOI=4, 4 days, 96 well, CellTiter-Glo) | EC50 (SARS-CoV-2; Table 4, read-out: EC50 SARS CoV2) |
| --- | --- | --- | --- | --- | --- | --- | --- | --- | --- | --- | --- | --- |
| CC(=O)O[C@H]1[C@@H](OC(C)=O)[C@](C#N)(c2ccc3c(N)ncnn23)O[C@@H]1COP(=O)(N[C@@H](C)C(=O)OC1CC2(CCC2)C1)Oc1ccc(C(C)(C)C)cc1 (stereo partly drawn) [Example 30, Spiro[3.3]heptan-2-yl (2S)-2-[[(4-tert-butylphenoxy)-[[(2R,3R,4R,5R)-3,4-diacetoxy-5-(4-aminopyrrolo[2,1-f][1,2,4]triazin-7-yl)-5-cyano-tetrahydrofuran-2-yl]methoxy]phosphoryl]amino]propanoate] | 2310 nM | 4.49 nM | 202 nM | 39.7 nM | 7.3 nM | 27.1 nM |  |  |  |  |  |  |
| CC(C)C(=O)O[C@H]1[C@@H](OC(=O)C(C)C)[C@](C#N)(c2ccc3c(N)ncnn23)O[C@@H]1COP(=O)(N[C@@H](C)C(=O)OC1CCC1)Oc1ccccc1 (stereo partly drawn) [Example 21, (2R,3R,4R,5R)-2-(4-Aminopyrrolo[2,1-f][1,2,4]triazin-7-yl)-2-cyano-5-((((((S)-1-cyclobutoxy-1-oxopropan-2-yl)amino)(phenoxy)phosphoryl)oxy)methyl) tetrahydrofuran-3,4-diyl bis(2-methylpropanoate)] | 3110 nM | 5.36 nM | 234 nM |  | 19.8 nM | 29.4 nM | 123 nM | 58.8 nM |  |  |  |  |
| CCC(CC)COC(=O)[C@H](C)N[P@](=O)(OC[C@H]1O[C@@](C#N)(c2ccc3c(=N)n(COP(=O)(O)O)cnn23)[C@H](O)[C@@H]1O)Oc1ccccc1 [Example 28, 2-Ethylbutyl ((S)-(((2R,3S,4R,5R)-5-cyano-3,4-dihydroxy-5-(4-imino-3-((phosphonooxy)methyl)-3,4-dihydropyrrolo[2,1-f][1,2,4]triazin-7-yl)tetrahydrofuran-2-yl)methoxy)(phenoxy)phosphoryl)-L-alaninate] | 7450 nM |  | 1620 nM |  | 31 nM | 21.5 nM |  |  | 35 nM |  |  |  |
| CCC(=O)O[C@H]1[C@@H](OC(=O)CC)[C@](C#N)(c2ccc3c(N)ncnn23)O[C@@H]1CO[P@@](=O)(N[C@@H](C)C(=O)OCC(CC)CC)Oc1ccccc1 [Example 3, (2R,3R,4R,5R)-2-(4-aminopyrrolo[2,1-f][1,2,4]triazin-7-yl)-2-cyano-5-((((S)—(((S)-1-(2-ethylbutoxy)-1-oxopropan-2-yl)amino)(phenoxy)phosphoryl)oxy)methyl) tetrahydrofuran-3,4-diyl Dipropionate] | 5820 nM |  | 129 nM |  | 44.1 nM | 18.3 nM | 113 nM |  | 5.55 nM |  |  |  |
| CCC(CC)COC(=O)[C@H](C)NP(=O)(OC[C@H]1O[C@@](C#N)(c2ccc3c(N)ncnn23)[C@H](O)[C@@H]1O)Oc1ccc(C(C)(C)C)cc1 (mixture of isomers) [Example 13, 2-ethylbutyl (2S)-2-[[[(2R,5R)-5-(4-aminopyrrolo[2,1-f][1,2,4]triazin-7-yl)-5-cyano-3,4-dihydroxy-tetrahydrofuran-2-yl]methoxy-(4-tert-butylphenoxy)phosphoryl]amino]propanoate] | 3800 nM |  | 319 nM | 58.8 nM | 34.5 nM | 20.1 nM | 88.9 nM |  | 2.92 nM |  |  |  |
| CCC(CC)COC(=O)[C@H](C)NP(=O)(OC[C@H]1O[C@@](C#N)(c2ccc3c(N)ncnn23)[C@H](O)[C@@H]1O)Oc1cc(C)ccc1C(C)C (single isomer, unassigned) [Example 26a] |  |  |  |  | 1160 nM |  |  |  |  | > 45000 nM |  |  |
| CCC(CC)COC(=O)[C@H](C)NP(=O)(OC[C@H]1O[C@@](C#N)(c2ccc3c(N)ncnn23)[C@H](O)[C@@H]1O)Oc1cc(C)ccc1C(C)C (single isomer, unassigned) [Example 26b] |  |  |  |  |  |  |  |  |  | 2400 nM | 603 nM |  |
| C[C@H](NP(=O)(OC[C@H]1O[C@@](C#N)(c2ccc3c(N)ncnn23)[C@H](O)[C@@H]1O)Oc1ccc(C(C)(C)C)cc1)C(=O)OC1CC2(CCC2)C1 (stereo partly drawn) [Example 29, Spiro[3.3]heptan-2-yl (2S)-2-[[[(2R,3S,4R,5R)-5-(4-aminopyrrolo[2,1-f][1,2,4]triazin-7-yl)-5-cyano-3,4-dihydroxy-tetrahydrofuran-2-yl]methoxy-(4-tert-butylphenoxy)phosphoryl]amino]propanoate] | 2650 nM |  |  | 62.2 nM | 10.7 nM | 36.9 nM | 65.1 nM |  | 3.93 nM |  |  | 123 nM |
